Experiments:
human recombinant BACE2 = human recombinant BACE2 (Homo sapiens (Human), UniProt Q9Y5Z0); assay: In vitro enzymatic BACE2 FRET assay; assay type: biochemical; conditions: BACE2 FRET enzyme assay; read-out: IC50 IP (μM) BACE2 enzyme
Description: These recombinant proteins were further purified using Ni-NTA affinity chromatography (Qiagen). […] This assay is effectively started by the addition of FRET substrate (50 nM) and the combination is incubated for one hour. The FRET assay is terminated by addition of Tris buffer, which raises the pH to neutrality, and the fluorescence is determined. The FRET substrate is a peptide with commercially available fluorophore and quencher, on opposite sides of the BACE cleavage site. Proteolytic cleavage of the FRET substrate releases quenching of fluorescence (excitation 488 nm and emission 590 nm).

[1] = system: Aβ40 in conditioned medium of cells stably expressing Amyloid Precursor Protein (APP); assay: In vitro BACE-1 cell-based assay (Aβ40 sandwich ELISA); conditions: BACE1 cell-based assay; read-out: IC50 IP (μM) BACE1 cell
In short: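 APP-stable cells, pre-cultured 24 h at 37° C in DMEM/10% FBS, were treated 24 h with compound in a 10-point series starting at 100 μM or 10 μM (0.1% DMSO final). Secreted Aβ40 in conditioned medium was measured by pAb40/biotin-6E10 sandwich ELISA with Europium time-resolved fluorescence; IC50 from percent inhibition versus concentration.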

Recombinant Cat D = Recombinant Cat D (Homo sapiens (Human), UniProt P07339); assay: In vitro enzymatic Cathepsin D (Cat D) FRET assay; assay type: biochemical; conditions: Cathepsin D FRET enzyme assay; read-out: IC50 IP (μM) CatD
Sequence of Recombinant Cat D (P07339 65-412): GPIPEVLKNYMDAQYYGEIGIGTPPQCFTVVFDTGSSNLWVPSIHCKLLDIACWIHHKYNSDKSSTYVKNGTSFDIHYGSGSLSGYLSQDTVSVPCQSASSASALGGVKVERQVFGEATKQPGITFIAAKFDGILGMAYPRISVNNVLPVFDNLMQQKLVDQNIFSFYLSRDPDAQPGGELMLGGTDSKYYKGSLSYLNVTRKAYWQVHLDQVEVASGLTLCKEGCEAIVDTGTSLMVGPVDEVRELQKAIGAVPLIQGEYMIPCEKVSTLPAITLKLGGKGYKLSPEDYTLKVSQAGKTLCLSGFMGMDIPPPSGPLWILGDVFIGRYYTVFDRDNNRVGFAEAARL
In short: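 Fluorescence at 500 nm excitation and 580 nm emission reports cleavage of a quenched fluorophore–quencher peptide (20 nM) by CHO-expressed Cat D. Reactions ran one hour in 0.05 M citrate pH 3.5, 5 mM CHAPS, 10% DMSO final before a Tris stop raised pH to neutrality.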

human recombinant BACE1 = human recombinant BACE1 (Homo sapiens (Human), UniProt P56817); assay: In vitro enzymatic BACE1 FRET assay; assay type: biochemical; conditions: BACE1 FRET enzyme assay; read-out: IC50 IP (μM) BACE1 enzyme
Sequence of human recombinant BACE1 (P56817 46-501): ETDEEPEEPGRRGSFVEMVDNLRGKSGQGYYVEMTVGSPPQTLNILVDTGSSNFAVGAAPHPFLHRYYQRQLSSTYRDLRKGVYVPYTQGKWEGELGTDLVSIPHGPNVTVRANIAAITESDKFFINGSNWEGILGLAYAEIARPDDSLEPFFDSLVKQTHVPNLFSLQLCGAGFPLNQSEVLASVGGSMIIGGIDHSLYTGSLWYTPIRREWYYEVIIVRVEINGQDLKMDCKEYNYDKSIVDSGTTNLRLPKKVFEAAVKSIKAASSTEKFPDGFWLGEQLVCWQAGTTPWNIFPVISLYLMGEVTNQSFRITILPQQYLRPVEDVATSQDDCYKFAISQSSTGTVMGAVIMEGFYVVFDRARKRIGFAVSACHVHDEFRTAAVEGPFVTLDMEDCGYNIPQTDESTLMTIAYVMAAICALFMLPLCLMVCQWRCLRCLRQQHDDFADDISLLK
In short: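 Ni-NTA-purified recombinant enzyme incubated 1 h with 50 nM FRET peptide substrate (fluorophore and quencher flanking the BACE cleavage site). Reaction stopped with Tris buffer raising pH to neutrality; cleavage-released fluorescence read at ex 488/em 590 nm.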

Sequence of human recombinant BACE2 (Q9Y5Z0 63-518): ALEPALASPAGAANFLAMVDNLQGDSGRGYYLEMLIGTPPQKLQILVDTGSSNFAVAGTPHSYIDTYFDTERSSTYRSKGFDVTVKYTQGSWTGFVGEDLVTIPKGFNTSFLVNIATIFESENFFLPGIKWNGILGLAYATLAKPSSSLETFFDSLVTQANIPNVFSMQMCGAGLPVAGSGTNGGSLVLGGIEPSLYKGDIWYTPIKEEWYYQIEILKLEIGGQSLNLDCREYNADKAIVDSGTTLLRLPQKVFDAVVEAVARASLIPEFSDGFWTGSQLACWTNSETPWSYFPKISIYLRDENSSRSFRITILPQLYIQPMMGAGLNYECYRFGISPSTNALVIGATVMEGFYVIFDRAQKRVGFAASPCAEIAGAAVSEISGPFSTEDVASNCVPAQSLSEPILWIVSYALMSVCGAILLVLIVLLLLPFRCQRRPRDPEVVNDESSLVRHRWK

SMILES: C#CCOc1cnc(C(=O)Nc2cc(F)c(F)c([C@@]3(C)N=C(N)S[C@@]4(CO)C[C@H]43)c2)cn1 [Example 61, N-(3-((1S,5S,6S)-3-amino-1-(hydroxymethyl)-5-methyl-2-thia-4-azabicyclo[4.1.0]hept-3-en-5-yl)-4,5-difluorophenyl)-5-(2-propyn-1-yloxy)-2-pyrazinecarboxamide]
- IC50 (human recombinant BACE2): 0.0201 µM
- IC50 [1]: 0.00035 µM
- IC50 (Recombinant Cat D): 59.7 µM
- IC50 (human recombinant BACE1): 0.0003 µM

SMILES: COc1cnc2c(Nc3cc(F)c(F)c([C@@]4(CF)N=C(N)S[C@H]5C[C@H]54)c3)nccc2n1 [Example 62, N-(3-((1S,5S,6S)-3-amino-5-(fluoromethyl)-2-thia-4-azabicyclo[4.1.0]hept-3-en-5-yl)-4,5-difluorophenyl)-2-methoxypyrido[3,4-b]pyrazin-5-amine]
- IC50 (human recombinant BACE2): 0.0885 µM
- IC50 [1]: 0.14 µM
- IC50 (Recombinant Cat D): 295 µM
- IC50 (human recombinant BACE1): 0.0289 µM

SMILES: CC(C)Oc1cnc2c(Nc3cc(F)c(F)c([C@@]4(CF)N=C(N)S[C@H]5C[C@H]54)c3)nccc2n1 [Example 63, N-(3-((1S,5S,6S)-3-amino-5-(fluoromethyl)-2-thia-4-azabicyclo[4.1.0]hept-3-en-5-yl)-4,5-difluorophenyl)-2-(1-methylethoxy)pyrido[3,4-b]pyrazin-5-amine]
- IC50 (human recombinant BACE2): 3.75 µM
- IC50 [1]: 4.65 µM
- IC50 (Recombinant Cat D): 494 µM
- IC50 (human recombinant BACE1): 0.137 µM

SMILES: COc1cnc2c(Nc3cc(F)c(F)c([C@@]4(C)N=C(N)S[C@@]5(CF)C[C@H]54)c3)ncnc2c1 [Example 64, (1S,5S,6S)-5-(2,3-difluoro-5-((7-methoxypyrido[3,2-d]pyrimidin-4-yl)amino)phenyl)-1-(fluoromethyl)-5-methyl-2-thia-4-azabicyclo[4.1.0]hept-3-en-3-amine]
- IC50 (human recombinant BACE2): 0.025 µM
- IC50 [1]: 0.00281 µM
- IC50 (Recombinant Cat D): 268 µM
- IC50 (human recombinant BACE1): 0.00448 µM

SMILES: COC[C@]12C[C@H]1[C@@](C)(c1cc(Nc3ncnc4cc(OC)cnc34)cc(F)c1F)N=C(N)S2 [Example 65, N-(3-((1S,5S,6S)-3-amino-1-(methoxymethyl)-5-methyl-2-thia-4-azabicyclo[4.1.0]hept-3-en-5-yl)-4,5-difluorophenyl)-7-methoxypyrido[3,2-d]pyrimidin-4-amine]
- IC50 (human recombinant BACE2): 0.0836 µM
- IC50 [1]: 0.00781 µM
- IC50 (Recombinant Cat D): 1230 µM
- IC50 (human recombinant BACE1): 0.0133 µM

SMILES: COc1cnc2c(Nc3cc(F)c(F)c([C@@]4(CF)N=C(N)S[C@H]5C[C@H]54)c3)ncnc2c1 [Example 66, N-(3-((1S,5S,6S)-3-amino-5-(fluoromethyl)-2-thia-4-azabicyclo[4.1.0]hept-3-en-5-yl)-4,5-difluorophenyl)-7-methoxypyrido[3,2-d]pyrimidin-4-amine]
- IC50 (human recombinant BACE2): 0.132 µM
- IC50 [1]: 0.0525 µM
- IC50 (Recombinant Cat D): > 400 µM
- IC50 (human recombinant BACE1): 0.0171 µM

SMILES: C[C@]1(c2cc(NC(=O)c3ccc(Cl)cn3)ccc2F)N=C(N)S[C@@H]2[C@H]1C2(F)F [Example 69, N-(3-((1R,5S,6R)-3-amino-7,7-difluoro-5-methyl-2-thia-4-azabicyclo[4.1.0]hept-3-en-5-yl)-4-fluorophenyl)-5-chloro-2-pyridinecarboxamide]
- IC50 (human recombinant BACE2): 0.00302 µM
- IC50 [1]: 0.114 µM
- IC50 (Recombinant Cat D): 939 µM
- IC50 (human recombinant BACE1): 0.0152 µM

SMILES: Cc1cc(C#N)cnc1C(=O)Nc1cc(F)c(F)c([C@@]2(CF)N=C(N)S[C@@]3(CO)C[C@H]32)c1 [Example 70, N-(3-((1S,5S,6S)-3-amino-5-(fluoromethyl)-1-(hydroxymethyl)-2-thia-4-azabicyclo[4.1.0]hept-3-en-5-yl)-4,5-difluorophenyl)-5-cyano-3-methyl-2-pyridinecarboxamide]
- IC50 (human recombinant BACE2): 0.00247 µM
- IC50 [1]: 0.0035 µM
- IC50 (Recombinant Cat D): > 400 µM
- IC50 (human recombinant BACE1): 0.00116 µM

SMILES: C#CCOc1ccc(C(=O)Nc2cc(F)c(F)c([C@@]3(C)N=C(N)S[C@@]4(CO)C[C@H]43)c2)nc1 [Example 71, N-(3-((1S,5S,6S)-3-amino-1-(hydroxymethyl)-5-methyl-2-thia-4-azabicyclo[4.1.0]hept-3-en-5-yl)-4,5-difluorophenyl)-5-(2-propyn-1-yloxy)-2-pyridinecarboxamide]
- IC50 (human recombinant BACE2): 0.0375 µM
- IC50 [1]: 0.00156 µM
- IC50 (Recombinant Cat D): 329 µM
- IC50 (human recombinant BACE1): 0.00047 µM

SMILES: COC[C@]12C[C@H]1[C@@](CF)(c1cc(Nc3ncnc4cc(Cl)cnc34)ccc1F)N=C(N)S2 [Example 73, N-(3-((1S,5S,6S)-3-amino-5-(fluoromethyl)-1-(methoxymethyl)-2-thia-4-azabicyclo[4.1.0]hept-3-en-5-yl)-4-fluorophenyl)-7-chloropyrido[3,2-d]pyrimidin-4-amine]
- IC50 (human recombinant BACE2): 0.00296 µM
- IC50 [1]: 0.0177 µM
- IC50 (Recombinant Cat D): > 400 µM
- IC50 (human recombinant BACE1): 0.00911 µM

SMILES: COc1cnc(C(=O)Nc2ccc(F)c([C@@]3(CF)N=C(N)S[C@@]4(CO)C[C@H]43)c2)c(C)n1 [Example 75, N-(3-((1S,5S,6S)-3-amino-5-(fluoromethyl)-1-(hydroxymethyl)-2-thia-4-azabicyclo[4.1.0]hept-3-en-5-yl)-4-fluorophenyl)-5-methoxy-3-methyl-2-pyrazinecarboxamide]
- IC50 (human recombinant BACE2): 0.0295 µM
- IC50 [1]: 0.0136 µM
- IC50 (Recombinant Cat D): > 400 µM
- IC50 (human recombinant BACE1): 0.012 µM

SMILES: C#CCOc1cnc(C(=O)Nc2ccc(F)c([C@@]3(CF)N=C(N)S[C@@]4(CO)C[C@H]43)c2)c(C)n1 [Example 76, N-(3-((1S,5S,6S)-3-amino-5-(fluoromethyl)-1-(hydroxymethyl)-2-thia-4-azabicyclo[4.1.0]hept-3-en-5-yl)-4-fluorophenyl)-3-methyl-5-(2-propyn-1-yloxy)-2-pyrazinecarboxamide]
- IC50 (human recombinant BACE2): 0.0174 µM
- IC50 [1]: 0.00271 µM
- IC50 (Recombinant Cat D): 1490 µM
- IC50 (human recombinant BACE1): 0.00095 µM

SMILES: C#CCOc1cnc(C(=O)Nc2cc(F)c(F)c([C@@]3(C)N=C(N)S[C@H]4C[C@H]43)c2)c(C)n1 [Example 77, N-(3-((1S,5S,6S)-3-amino-5-methyl-2-thia-4-azabicyclo[4.1.0]hept-3-en-5-yl)-4,5-difluorophenyl)-3-methyl-5-(2-propyn-1-yloxy)-2-pyrazinecarboxamide]
- IC50 (human recombinant BACE2): 0.0461 µM
- IC50 [1]: 0.0217 µM
- IC50 (Recombinant Cat D): 949 µM
- IC50 (human recombinant BACE1): 0.0047 µM

SMILES: Cc1cc(Cl)cnc1C(=O)Nc1cc(F)c(F)c([C@@]2(CF)N=C(N)S[C@H]3C[C@H]32)c1 [Example 78, N-(3-((1S,5S,6S)-3-amino-5-(fluoromethyl)-2-thia-4-azabicyclo[4.1.0]hept-3-en-5-yl)-4,5-difluorophenyl)-5-chloro-3-methyl-2-pyridinecarboxamide]
- IC50 (human recombinant BACE2): 0.00126 µM
- IC50 [1]: 0.0917 µM
- IC50 (Recombinant Cat D): 627 µM
- IC50 (human recombinant BACE1): 0.00464 µM

SMILES: Cc1nc(OCC(F)(F)F)cnc1C(=O)Nc1ccc(F)c([C@@]2(CF)N=C(N)S[C@@]3(CO)C[C@H]32)c1 [Example 79, N-(3-((1S,5S,6S)-3-amino-5-(fluoromethyl)-1-(hydroxymethyl)-2-thia-4-azabicyclo[4.1.0]hept-3-en-5-yl)-4-fluorophenyl)-3-methyl-5-(2,2,2-trifluoroethoxy)-2-pyrazinecarboxamide]
- IC50 (human recombinant BACE2): 0.143 µM
- IC50 [1]: 0.0284 µM
- IC50 (Recombinant Cat D): > 400 µM
- IC50 (human recombinant BACE1): 0.00489 µM

SMILES: N#Cc1cnc2c(Nc3ccc(F)c([C@@]4(CF)N=C(N)S[C@@]5(CO)C[C@H]54)c3)ncnc2c1 [Example 80, 4-((3-((1S,5S,6S)-3-amino-5-(fluoromethyl)-1-(hydroxymethyl)-2-thia-4-azabicyclo[4.1.0]hept-3-en-5-yl)-4-fluorophenyl)amino)pyrido[3,2-d]pyrimidine-7-carbonitrile]
- IC50 (human recombinant BACE2): 0.0251 µM
- IC50 [1]: 0.00851 µM
- IC50 (Recombinant Cat D): > 400 µM
- IC50 (human recombinant BACE1): 0.00913 µM

SMILES: COc1cnc(C(=O)Nc2cc(F)c(F)c([C@@]3(CF)N=C(N)S[C@H]4C[C@H]43)c2)c(C)c1 [Example 81, N-(3-((1S,5S,6S)-3-amino-5-(fluoromethyl)-2-thia-4-azabicyclo[4.1.0]hept-3-en-5-yl)-4,5-difluorophenyl)-5-methoxy-3-methyl-2-pyridinecarboxamide]
- IC50 (human recombinant BACE2): 0.0116 µM
- IC50 [1]: 0.047 µM
- IC50 (Recombinant Cat D): 1390 µM
- IC50 (human recombinant BACE1): 0.0219 µM

SMILES: C#CCOc1cnc(C(=O)Nc2cc(F)c(F)c([C@@]3(CF)N=C(N)S[C@@]4(CO)C[C@H]43)c2)cn1 [Example 83, N-(3-((1S,5S,6S)-3-amino-5-(fluoromethyl)-1-(hydroxymethyl)-2-thia-4-azabicyclo[4.1.0]hept-3-en-5-yl)-4,5-difluorophenyl)-5-(2-propyn-1-yloxy)-2-pyrazinecarboxamide]
- IC50 (human recombinant BACE2): 0.0138 µM
- IC50 [1]: 0.00092 µM
- IC50 (Recombinant Cat D): 105 µM
- IC50 (human recombinant BACE1): 0.00046 µM

SMILES: CC#CCOc1cnc(C(=O)Nc2cc(F)c(F)c([C@@]3(C)N=C(N)S[C@@]4(CO)C[C@H]43)c2)c(C)c1 [Example 85, N-(3-((1S,5S,6S)-3-amino-1-(hydroxymethyl)-5-methyl-2-thia-4-azabicyclo[4.1.0]hept-3-en-5-yl)-4,5-difluorophenyl)-5-(2-butyn-1-yloxy)-3-methyl-2-pyridinecarboxamide]
- IC50 (human recombinant BACE2): 0.0435 µM
- IC50 [1]: 0.00216 µM
- IC50 (Recombinant Cat D): 1550 µM
- IC50 (human recombinant BACE1): 0.00062 µM

— patent publication US20160046618A1, “Cyclopropyl Fused Thiazin-2-Amine Compounds as Beta-Secretase Inhibitors and Methods of Use” (AMGEN INC., priority 2014, published 2016)
